Laboratory results from patent US20220315631A1, “STAPLED BETA-CATENIN LIGANDS” (Ohio State Innovation Foundation, priority 2019, published 2022).
Positions of bridges follow the written chain, without caps; N, C: chain ends. Non-standard residues stand in square brackets, D forms with d. Residues, ends and D or L forms follow the SMILES beside them. Chains are numbered I, II in the order given. m‑xylene = 1,3-bis[(methylthio)methyl]benzene scaffold from m-xylene dibromide; 2Nal = N[C@@H](Cc1ccc2ccccc2c1)C(=O)O; Bta = N[C@@H](Cc1csc2ccccc12)C(=O)O; Tle = CC(C)(C)[C@H](N)C(=O)O; Dap = NC[C@H](N)C(=O)O; AEEA = NCCOCCOCC(=O)O; βAla = NCCC(=O)O

Experiments:
β-catenin = target: T1, β-catenin (Homo sapiens, UniProt P35222); test: FP-based competition assay for binding to β-catenin; settings: for IC50: competition with FAM-labeled peptide 1 (10 nM), 50 nM GST-β-catenin, read-out: KD or IC50
T1 construct: cells harboring plasmid pGEX-β-catenin(133-665)52 were grown in LB medium; made in house; host or cells: E. coli BL21 (DE3)
T1 sequence (P35222 133-665): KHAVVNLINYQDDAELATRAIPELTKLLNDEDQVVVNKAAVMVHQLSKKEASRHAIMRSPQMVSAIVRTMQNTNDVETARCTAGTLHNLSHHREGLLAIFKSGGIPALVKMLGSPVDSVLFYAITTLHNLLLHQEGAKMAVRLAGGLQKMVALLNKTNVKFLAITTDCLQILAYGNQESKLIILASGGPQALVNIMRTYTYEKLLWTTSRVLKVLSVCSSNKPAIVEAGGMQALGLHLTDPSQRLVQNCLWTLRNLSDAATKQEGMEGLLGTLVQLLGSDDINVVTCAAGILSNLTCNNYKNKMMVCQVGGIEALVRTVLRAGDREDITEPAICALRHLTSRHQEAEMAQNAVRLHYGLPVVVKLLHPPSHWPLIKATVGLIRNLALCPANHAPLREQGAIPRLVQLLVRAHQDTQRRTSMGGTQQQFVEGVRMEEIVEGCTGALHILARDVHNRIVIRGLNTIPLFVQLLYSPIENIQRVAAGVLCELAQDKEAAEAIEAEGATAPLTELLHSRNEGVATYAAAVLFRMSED
Procedure: Samples were transferred into black-on-black 384-well non-binding microplates (Greiner) and FP was measured using a Tecan M1000 Infinite plate reader. The data were analyzed using GraphPad Prism v. 8.0 and normalized to FP values corresponding to fully bound/unbound probe. All binding values reported are the mean±SD of independent experiments.
Protein Purification. […] Cells were harvested by centrifugation and lysed in lysis buffer (20 mM Tris, pH 8.0, 150 mM NaCl, 2 mM DTT, 1% Triton-X100, 200 mM EDTA, 10 mg/mL PMSF, and 0.2 mg/mL lysozyme) on ice for 20 min, followed by sonication (8 s off, 2 s on, 1 min total, performed twice at 70% amplitude). The homogenate was centrifuged (13,000 g for 30 min at 4° C. and the clear supernatant was loaded onto an equilibrated glutathione-agarose column. After exhaustive washing with wash buffer (20 mM Tris, pH 7.4, 150 mM NaCl, 2 mM DTT), the bound GST-β-catenin was eluted with wash buffer supplemented with 10 mM glutathione, concentrated, and stored at −80° C. in 30% glycerol.

SW480 cells = format: cell-based
Procedure: (§1) MTT Assay. SW480 (Wnt-addicted) and MCF7 (Wnt-independent) cells were seeded in 96-well plate with 3×10^3 cells per well, and allowed to grow overnight. […] After that, 10 μL of an MTT stock solution (5 mg/mL) was added into each well and the plate was incubated at 37° C. for 4 h. 100 μL of SDS-HCl solubilizing solution was added and the plate was incubated at 37° C. overnight. The absorbance of the formazan product formed was measured at 570 nm on a Tecan microtiter plate reader. Cells were incubated with serially diluted compounds for 72 hours in the presence of 10% FBS. Data reported represent the mean±SD of 3 independent experiments.
(§2) Cell Viability Assay. Cell viability was determined using the MTT assay. […] Trypsin was neutralized with the addition of warm DPBS and cells were pelleted down at 200 g for 5 min at 4° C. […] Com-pounds were serially diluted in DPBS with standardized DMSO concentration (0.5% v/v) and added to each well. […] After that, 10 μL of MTT solution was added to each well, followed by incubation for 4 h at 37° C., 5% CO2. […] The next day, A565 was determined using a Tecan M1000 Infinite plate reader and absorbance values were standardized against cell-free wells and normalized to untreated control cells. Data was analyzed using GraphPad Prism v. […]

MCF7 cells = test: MTT cell viability assay, MCF7 (Wnt-independent) cells; format: cell-based; settings: up to 20 μM
Procedure: as §1, §2

Human serum stability = format: in vitro ADME; settings: relative to peptide 9
Procedure: Human Serum Stability. […] After protein precipitation was complete, each aliquot was centrifuged (15000 g, 5 min, 4° C.) and analyzed by RP-HPLC. The percentage of remaining peptide at a given time point was determined by integrating the peak area and compared it to that of the untreated control (100%).

GST-β-catenin = target: T2, GST-β-catenin (UniProt P35222 133-665); test: Table 7, binding to β-catenin; FP competition as for peptides 2-5 presumed
T2 construct: range 133-665; GST fusion purified on glutathione-agarose and used in the FP assays; also called GST-β-catenin(133-665); pGEX-β-catenin(133-665); not shown: glutathione S-transferase (GST) tag encoded by the pGEX plasmid
T2 sequence (looked up): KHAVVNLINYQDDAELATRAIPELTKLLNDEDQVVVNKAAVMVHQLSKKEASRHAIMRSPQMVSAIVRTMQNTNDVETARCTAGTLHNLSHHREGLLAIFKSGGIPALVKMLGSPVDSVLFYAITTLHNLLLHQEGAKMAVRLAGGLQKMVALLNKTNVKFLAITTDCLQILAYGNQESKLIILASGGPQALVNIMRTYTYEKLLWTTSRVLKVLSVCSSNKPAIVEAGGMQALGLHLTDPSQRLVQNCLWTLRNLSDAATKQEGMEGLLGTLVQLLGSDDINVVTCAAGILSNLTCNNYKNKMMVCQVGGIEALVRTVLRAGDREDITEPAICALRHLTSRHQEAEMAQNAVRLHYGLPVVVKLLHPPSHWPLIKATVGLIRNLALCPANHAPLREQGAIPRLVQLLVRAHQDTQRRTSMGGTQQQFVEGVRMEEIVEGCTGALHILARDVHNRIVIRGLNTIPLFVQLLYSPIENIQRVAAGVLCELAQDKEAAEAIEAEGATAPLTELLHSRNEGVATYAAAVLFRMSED

CC[C@H](C)[C@@H]1NC(=O)[C@@H](NC(=O)[C@H](CCC(=O)O)NC(=O)[C@@H]2CCCN2C(=O)[C@H](Cc2ccc(O)cc2)NC(C)=O)CC(=O)NCCCC[C@@H](C(=O)N[C@@H](Cc2c[nH]cn2)C(=O)N[C@@H](CC(C)C)C(=O)N[C@@H](CCC(N)=O)C(=O)N[C@@H](CCCNC(=N)N)C(=O)N[C@H](C(=O)N[C@@H](Cc2csc3ccccc23)C(=O)N[C@@H](CCCNC(=N)N)C(=O)NCCOCCOCC(=O)NCCOCCOCC(=O)N[C@@H](CN)C(N)=O)C(C)(C)C)NC(=O)[C@H](CC(=O)O)NC(=O)[C@H](CC(C)C)NC1=O [Peptide 26, Ac-YPEDILDKHLQRZ(3-Bta)R-(miniPEG)2-Dap-NH2] (Ac-YPEDILDKHLQR[Tle][Bta]R[AEEA][AEEA][Dap]-NH2; lactam 4-8)
IC50 (β-catenin): 0.037 µM

CC[C@H](C)[C@@H]1NC(=O)[C@@H](NC(=O)[C@H](CCC(=O)O)NC(=O)[C@@H]2CCCN2C(=O)[C@H](Cc2ccc(O)cc2)NC(=O)CNC(=O)CNC(C)=O)CC(=O)NCCCC[C@@H](C(=O)N[C@@H](Cc2c[nH]cn2)C(=O)N[C@@H](CC(C)C)C(=O)N[C@@H](CCC(N)=O)C(=O)N[C@@H](CCCNC(=N)N)C(=O)N[C@H](C(=O)N[C@H](C(=O)N[C@@H](CC(C)C)C(=O)NCCOCCOCC(=O)NCCOCCOCC(=O)N[C@@H](CNC(=O)CC[C@@H]2NC(=O)[C@@H](CCCNC(=N)N)NC(=O)[C@H](CCCNC(=N)N)NC(=O)[C@@H](CCCNC(=N)N)NC(=O)[C@H](CCCNC(=N)N)NC(=O)[C@H](Cc3ccc4ccccc4c3)NC(=O)[C@@H](Cc3ccccc3)NC2=O)C(N)=O)[C@@H](C)CC)C(C)C)NC(=O)[C@H](CC(=O)O)NC(=O)[C@H](CC(C)C)NC1=O [peptide 2] (I: Ac-GGYPEDILDKHLQRVIL[AEEA][AEEA][Dap]-NH2 / II: cyclo([2Nal]R[dR]R[dR]E[dF]); lactam I:6-I:10; amide I:20-II:6)
EC50 (SW480 cells; MTT assay, read-out: EC50, viability / anti-proliferative activity against SW480 cells): 3.7 µM

CC[C@H](C)[C@@H]1NC(=O)[C@@H](NC(=O)[C@H](CCC(=O)O)NC(=O)[C@@H]2CCCN2C(=O)[C@H](Cc2ccc(O)cc2)NC(=O)CNC(=O)CNC(C)=O)CC(=O)NCCCC[C@@H](C(=O)N[C@@H](Cc2c[nH]cn2)C(=O)N[C@@H](CC(C)C)C(=O)N[C@@H](CCC(N)=O)C(=O)N[C@@H](CCCNC(=N)N)C(=O)N[C@H](C(=O)N[C@H](C(=O)N[C@@H](CC(C)C)C(=O)NCCOCCOCC(=O)NCCOCCOCC(=O)N[C@@H](CNC(=O)[C@H](CCCNC(=N)N)NC(=O)[C@H](CCCNC(=N)N)NC(=O)[C@H](CCCNC(=N)N)NC(=O)[C@H](CCCNC(=N)N)NC(=O)[C@H](CCCNC(=N)N)NC(=O)[C@H](CCCNC(=N)N)NC(=O)[C@H](CCCNC(=N)N)NC(=O)[C@H](CCCNC(=N)N)NC(=O)[C@@H](N)CCCNC(=N)N)C(N)=O)[C@@H](C)CC)C(C)C)NC(=O)[C@H](CC(=O)O)NC(=O)[C@H](CC(C)C)NC1=O [peptide 5]
effect on MCF7 cell viability (MCF7 cells): reduced the viability of MCF7 cells

CC[C@H](C)[C@@H]1NC(=O)[C@@H](NC(=O)[C@H](CCC(=O)O)NC(=O)[C@@H]2CCCN2C(=O)[C@H](Cc2ccc(O)cc2)NC(=O)CNC(=O)CNC(C)=O)CC(=O)NCCCC[C@@H](C(=O)N[C@@H](Cc2c[nH]cn2)C(=O)N[C@@H](CC(C)C)C(=O)N[C@@H](CCC(N)=O)C(=O)N[C@@H](CCCNC(=N)N)C(=O)N[C@H](C(=O)N[C@H](C(=O)N[C@@H](CC(C)C)C(=O)NCCOCCOCC(=O)NCCOCCOCC(=O)N[C@@H](CNC(=O)[C@H](CCC(N)=O)NC(=O)[C@@H]2CCCN2C(=O)[C@@H]2CCCN2C(=O)[C@H](CCCNC(=N)N)NC(=O)[C@H](CCCNC(=N)N)NC(=O)[C@H](CCCNC(=N)N)NC(=O)[C@H](CCC(N)=O)NC(=O)[C@H](CCCNC(=N)N)NC(=O)[C@H](CCCNC(=N)N)NC(=O)[C@H](CCCCN)NC(=O)[C@H](CCCCN)NC(=O)[C@H](CCCNC(=N)N)NC(=O)CN)C(N)=O)[C@@H](C)CC)C(C)C)NC(=O)[C@H](CC(=O)O)NC(=O)[C@H](CC(C)C)NC1=O [peptide 4]
effect on MCF7 cell viability (MCF7 cells): reduced the viability of MCF7 cells

CC[C@H](C)[C@@H]1NC(=O)[C@@H](NC(=O)[C@H](CCC(=O)O)NC(=O)[C@@H]2CCCN2C(=O)[C@H](Cc2ccc(O)cc2)NC(C)=O)CC(=O)NCCCC[C@@H](C(=O)N[C@@H](Cc2c[nH]cn2)C(=O)N[C@@H](CC(C)C)C(=O)N[C@@H](CCC(N)=O)C(=O)N[C@@H](CCCNC(=N)N)C(=O)N[C@H](C(=O)N[C@H](C(=O)N[C@@H](CC(C)C)C(N)=O)[C@@H](C)CC)C(C)(C)O)NC(=O)[C@H](CC(=O)O)NC(=O)[C@H](CC(C)C)NC1=O [Peptide 37]
binding affinity for β-catenin compared to peptide 9 (β-catenin; relative to peptide 9): identical
serum stability compared to peptide 9 (Human serum stability): identical

CC[C@H](C)[C@@H]1NC(=O)[C@@H](NC(=O)[C@H](CCC(=O)O)NC(=O)[C@@H]2CCCN2C(=O)[C@H](Cc2ccc(O)cc2)NC(=O)CNC(=O)CNC(C)=O)CC(=O)NCCCC[C@@H](C(=O)N[C@@H](CC(=O)O)C(=O)N[C@@H](CC(C)C)C(=O)N[C@@H](CCC(N)=O)C(=O)N[C@@H](CCCNC(=N)N)C(=O)N[C@H](C(=O)N[C@@H](C)C(=O)N[C@@H](CC(C)C)C(=O)NCCOCCOCC(=O)NCCOCCOCC(=O)N[C@@H](CNC(=O)CC[C@@H]2NC(=O)[C@@H](CCCNC(=N)N)NC(=O)[C@H](CCCNC(=N)N)NC(=O)[C@@H](CCCNC(=N)N)NC(=O)[C@H](CCCNC(=N)N)NC(=O)[C@H](Cc3ccc4ccccc4c3)NC(=O)[C@@H](Cc3ccccc3)NC2=O)C(N)=O)C(C)C)NC(=O)[C@H](Cc2c[nH]cn2)NC(=O)[C@H](CC(C)C)NC1=O [peptide 3] (I: Ac-GGYPEDILHKDLQRVAL[AEEA][AEEA][Dap]-NH2 / II: cyclo([2Nal]R[dR]R[dR]E[dF]); lactam I:6-I:10 (inferred); amide I:20-II:6 (inferred); ring closure inferred)
lower affinity for β-catenin than peptide 2 (β-catenin; relative to peptide 2): ~10 fold
viability of SW480 cells (SW480 cells; at the highest concentration tested (20 μM)): only slight decreases

CC[C@H](C)[C@@H]1NC(=O)[C@@H](NC(=O)[C@H](CCC(=O)O)NC(=O)[C@@H]2CCCN2C(=O)[C@H](Cc2ccc(O)cc2)NC(C)=O)CC(=O)NCCCC[C@@H](C(=O)N[C@@H](Cc2c[nH]cn2)C(=O)N[C@@H](CC(C)C)C(=O)N[C@@H](CCC(N)=O)C(=O)N[C@@H](CCCNC(=N)N)C(=O)N[C@H](C(=O)N[C@@H](Cc2csc3ccccc23)C(=O)N[C@H](CCCNC(=N)N)C(=O)NCCOCCOCC(=O)NCCOCCOCC(=O)N[C@@H](CN)C(N)=O)C(C)(C)C)NC(=O)[C@H](CC(=O)O)NC(=O)[C@H](CC(C)C)NC1=O [Peptide 27, Ac-YPEDILDKHLQRZ(3-Bta)(dR)-(miniPEG)2-Dap-NH2] (Ac-YPEDILDKHLQR[Tle][Bta][dR][AEEA][AEEA][Dap]-NH2; lactam 4-8)
IC50 (β-catenin): 0.041 µM

B1: Peptide 7 (peptide)
peptide: Ac-GGYPECILDCKHLQDVILK[βAla]-NH2
modifications: lactam (positions not given here); linker 6-10 via m‑xylene; not fully specified; also: Asp-Lys staple, places not given here (residues shown as images)
notes: Double stapled peptide
IC50 (GST-β-catenin): 3.2 µM
